Measurements reported in PubChem BioAssay (NCI).
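Compound exposure: 48 hours, 5 concentrations, 96-well plates. At the GI50, growth is halved. TGI is the concentration that stops growth completely.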

Assays:
Assay in all cases: NCI anticancer screen, dose series, 48 h
K-562 leukemia = system: K-562 leukemia
CAKI-1 renal = system: CAKI-1 renal
SK-MEL-28 melanoma = system: SK-MEL-28 melanoma
U251 CNS = system: U251 CNS
OVCAR-4 ovarian = system: OVCAR-4 ovarian
UACC-257 melanoma = system: UACC-257 melanoma
MALME-3M melanoma = system: MALME-3M melanoma
OVCAR-5 ovarian = system: OVCAR-5 ovarian
HCT-116 colon = system: HCT-116 colon
HOP-62 NSCLC = system: HOP-62 NSCLC

| Structure (SMILES) | TGI (K-562 leukemia) [µM] | TGI (CAKI-1 renal) [µM] | TGI (SK-MEL-28 melanoma) [µM] | TGI (U251 CNS) [µM] | TGI (OVCAR-4 ovarian) [µM] | TGI (UACC-257 melanoma) [µM] | TGI (MALME-3M melanoma) [µM] | TGI (OVCAR-5 ovarian) [µM] | TGI (HCT-116 colon) [µM] | TGI (HOP-62 NSCLC) [µM] | GI50 (K-562 leukemia) [µM] | GI50 (CAKI-1 renal) [µM] | GI50 (SK-MEL-28 melanoma) [µM] | GI50 (U251 CNS) [µM] | GI50 (OVCAR-4 ovarian) [µM] | GI50 (UACC-257 melanoma) [µM] | GI50 (MALME-3M melanoma) [µM] | GI50 (OVCAR-5 ovarian) [µM] | GI50 (HCT-116 colon) [µM] | GI50 (HOP-62 NSCLC) [µM] |
| --- | --- | --- | --- | --- | --- | --- | --- | --- | --- | --- | --- | --- | --- | --- | --- | --- | --- | --- | --- | --- |
| O=C1CCCC1NC(=O)C(F)(F)F (stereo not drawn) | > 100 | > 100 | > 100 | > 100 | > 100 | > 100 | > 100 | > 100 | > 100 | > 100 | – | – | – | – | – | – | – | – | – | – |
| CCOC(=O)NC(=O)c1cn(CCN2CCN(C(=O)NCCCCCCNC(=O)N3CCN(CCn4cc(C(=O)NC(=O)OCC)c(=O)n(CCN(CC)CC)c4=O)CC3)CC2)c(=O)n(CCC(CC)CC)c1=O | > 100 | – | > 100 | > 100 | > 100 | > 100 | > 100 | > 100 | > 100 | > 100 | – | – | – | – | – | – | – | – | – | – |
| N#Cc1nc2cc(F)c(F)cc2nc1-c1ccc(Cl)cc1 | > 27.8 | 38.5 | > 100 | 25 | > 100 | > 58.3 | 39.1 | > 100 | 29.2 | > 100 | 2.99 | 15.1 | 22 | 10.4 | > 62 | 22.1 | 15.8 | > 100 | 10.7 | 45 |
| Clc1ccc(SCCCCCCCCCCSc2ccc(Cl)cc2)cc1 | > 100 | > 100 | > 100 | > 69.8 | > 100 | > 76.1 | > 70.3 | > 78.3 | > 100 | > 100 | – | – | – | – | – | – | – | – | – | – |
| CC1=C(C(=O)Nc2ccc(F)c(Cl)c2)C(c2cccc(Oc3ccccc3)c2)NC(=O)N1 (stereo not drawn) | – | 38.8 | 28.1 | 26.2 | – | 34.9 | – | 28.2 | 24.6 | 29.2 | – | 18.6 | 14.7 | 13.4 | – | 18 | – | 14.9 | 12.2 | 15.4 |
| CCCCCCCCCCCC[n+]1ccc(C(N)=O)cc1 | > 100 | 26.2 | 15 | 3.55 | 17.5 | 17.8 | 8.81 | 4.56 | 20.5 | 10.2 | 2.87 | 10.7 | 4.33 | 1.14 | 4.73 | 4.24 | 2.59 | 1.47 | 4.58 | 2.84 |
| O=C1C[C@H]2CC3(CC[C@H]2CN1)OCCO3 | > 100 | > 100 | > 100 | > 100 | > 100 | > 100 | > 100 | – | > 100 | > 100 | – | – | – | – | – | – | – | – | – | – |
| N#CN1CCC=C(c2cc3ccccc3[nH]2)C1 | > 448 | > 448 | > 448 | > 448 | – | > 448 | > 448 | > 448 | > 448 | > 448 | – | – | – | – | – | – | – | – | – | – |
| CS(=O)(=O)Nc1cc(-c2ccc3ncnc(Nc4ccc5c(cnn5Cc5ccccc5F)c4)c3c2)cnc1Cl | > 100 | 5.62 | 6.59 | 14.4 | > 100 | 9 | 3 | > 100 | > 33.7 | > 100 | 2.27 | 1.71 | 0.771 | 2.11 | 3 | 1.51 | 0.466 | 2.22 | 2.08 | 0.457 |
| CCOC1C=CCCO1 (stereo not drawn) | > 100 | > 100 | > 100 | – | > 100 | > 100 | > 100 | > 100 | > 100 | > 100 | – | – | – | – | – | – | – | – | – | – |
| NCCCCN(Cc1nc2ccccc2[nH]1)[C@H]1CCCc2cccnc21 | 43.3 | > 64.4 | 34.8 | > 67.8 | > 82.7 | 31.4 | 28.2 | > 100 | 51.3 | > 100 | 12.6 | 16.1 | 14.9 | 11.3 | 10.6 | 15.3 | 13.2 | 11.8 | 6.81 | 11.4 |
| COc1cc(/C=C2/C(=O)NC(Cc3cc(OC)c(OC)c(C)c3OC)C(=O)N2Cc2ccccc2)c(OC)c(C)c1OC (stereo not drawn) | > 100 | > 100 | > 100 | > 100 | > 100 | > 100 | > 100 | > 100 | > 100 | > 100 | – | – | – | – | – | – | – | – | – | – |
| CN(C)c1ccc(O)c2c1C[C@H]1C[C@H]3[C@H](N(C)C)C(=O)C(C(N)=O)=C(O)[C@@]3(O)C(=O)C1=C2O | – | 20.9 | 48.4 | 57.1 | > 100 | > 100 | 33.3 | 88.8 | 35 | 71.5 | – | 2.16 | 7.52 | 4.5 | 7.53 | 8.99 | 7.51 | 15.5 | 3.86 | 4.01 |
| O=C(/C=C1/NC(=O)CS1)Nc1ccccc1 | > 100 | > 100 | > 100 | > 100 | > 100 | – | > 100 | > 100 | > 100 | > 100 | – | – | – | – | – | – | – | – | – | – |
| CC1/C(=N/Nc2ccc([N+](=O)[O-])cc2)CC2C3(C)CCC2(C(C)C(=O)O)C(=O)C13 (stereo not drawn) | – | > 100 | > 100 | > 100 | > 100 | > 100 | > 100 | > 100 | > 100 | > 100 | – | 5.95 | > 100 | 30.2 | > 100 | > 100 | > 100 | > 100 | 6.97 | 95 |
| CC(C)CCc1c(Cl)nc(Cl)nc1Cl | > 100 | – | – | 24.4 | 44.2 | 34 | 50.7 | 55 | 9.3 | 30.4 | – | – | – | – | – | – | – | – | – | – |
